Measured values taken from patent US20240108602A1, “TREATMENT OF MENTAL DISORDERS” (GH Research Ireland Limited, priority 2022, published 2024).
Like-named read-outs stand apart in the source and are kept apart here.

Columns and labels:
human hepatocytes [1] = assay: Metabolite identification after incubation of 5-MeO-DMT with human hepatocytes; conditions: 5-MeO-DMT free base 10 μM, up to 120 minutes
Experimental: For incubations with cryopreserved hepatocytes, the 2 mM stock solution was diluted with Leibovitz L-15 medium to a concentration of 20 μM or 2 μM. An aliquot (250 μL) of the 20 μM and 2 μM test substance formulations was added to each hepatocyte incubation sample (250 μL), as appropriate, so that the final test substance concentration in the incubations was 10 μM or 1 μM, respectively, and incubations contained less than 1% (v/v) solvent.
Incubations were performed at ca. 37° C. in a shaking water bath (total incubation volume 0.5 mL). For 1 μM, incubations were terminated after 0, 5, 10, 20, 30, 60 and 120 minutes, by the addition of ice-cold acetonitrile (0.5 mL).
The samples were vortex mixed and centrifuged at ca 13,000 rpm for 10 minutes at room temperature. Following centrifugation, the protein-free supernatants were removed for analysis.
Blank control incubations were carried out with Leibovitz L-15 medium in place of the test substance. No cells control samples were performed with Leibovitz L-15 medium in place of hepatocytes. Aliquots of the blank control samples were taken at 120 minutes, while no cells control samples were taken at 0, 30 and 120 for 1 μM incubations and at 0 and 120 minutes for 10 μM incubations.
All 1 μM incubations were performed in duplicate, while all 10 μM incubations were performed in singlet. All samples were stored at −80° C. (nominal) prior to analysis.
Prior to sample analysis a 100 μL aliquot of each sample was evaporated to near dryness under a steady stream of nitrogen at room temperature, and subsequently reconstituted in 50 μL of mobile phase A (0.1% formic acid in water). Each sample (0, 30 and 120-minute, 10 μM) was analysed using accurate mass LC-MS to determine relative levels of parent compound at each time-point, and determine the profile of metabolites formed. Appropriate blank and control samples were also analysed. The 10 and 60-minute, 10 μM incubation samples were not analysed and were stored at −80° C. (nominal).
Data were interrogated for the presence of metabolites by comparison of retention times with the test substance reference standard and based on the accurate masses of potential metabolites using screening software (UNIFI version 1.9.4), and user defined search parameters. To confirm a suspected metabolite, the measured accurate mass of the peak detected in the sample used for structural elucidation had to be within 5 ppm of the theoretical mass in order to confirm the molecular formula.

[2] = Plasma binding of 5-MIAA (unbound fraction); type: in vitro ADME
Experimental: Binding to human plasma protein was determined. Reported are the unbound fraction (fu) for three replicates as well as the mean unbound fraction, the standard deviation and the mean % recovery (Table 8).

[3] = 5-MeO-DMT, 5-MIAA and bufotenine in urine, serum and breastmilk of a lactating PPD patient, LC-MS/MS
Experimental: The second patients was lactating, and, per the clinical trial protocol, breastmilk samples were collected pre-dosing and at multiple timepoints after administration of the last dose. […] Similar analyses were carried out on patient serum and urine samples.

[4] = Metabolic stability in Hμrel human hepatocyte co-culture model; conditions: human, Hμrel HumanPool primary human hepatocyte co-culture
human hepatocytes [5] = assay: as above
[6] = Daily Infant Dosage (DID) and Relative Infant Dose (RID) calculated from breast milk concentrations; conditions: 5 kg infant, three 250 ml feeds
Description: When determining the potential impact of maternal drug administration on a breastfed infant, it is standard practice to calculate the Relative Infant Dose (RID) (Bennett, P. N., and L. J. Notarianni. “Risk from drugs in breast milk: an analysis by relative dose.” Br J Clin Pharmacol 42.5 (1996): P673-4). The RID is the dosage (in μg/kg/day) the infant is exposed to by the intake of breast milk, divided by the dosage (in μg/kg/day) the mother receives.
Using estimates for daily intake of breast milk and the number of feeds as well as the measured breast milk concentrations the exposure of the infant can be determined.
For example, a published estimate for daily intake of breast milk as a function of infant weight is 150 ml/kg/day. To model the exposure, it is assumed that an infant of 5 kg is fed three times over 24 hours, receiving 250 ml breast milk each time.
Since the amount actually delivered to the patient may be lower than the indicated dose, a calculation of the RID is also carried out assuming that the actually delivered amount is only 50% of the indicated dose so that any a potential underestimation of the infant exposure is avoided.

[7] = female, human, breast milk, inhaled

For COc1ccc2[nH]cc(CC(=O)O)c2c1 [5-MIAA, 5-methoxyindole-3-acetic acid], the “Relative Proportion of compound after incubation of 5-MeO-DMT” value (human hepatocytes [1]) was “about 60%”, the “Relative Proportion of compound after incubation of 5-MeO-DMT” value (human hepatocytes [1]; listed as 5-Methoxyindole acetic acid (5-MIAA)) was 61% and the recovery ([2]; human) was 81.4%. It also gave a fraction unbound ([2]; human plasma, read-out: plasma binding (mean fraction unbound)) of about 0.5, a fraction unbound ([2]; human, read-out: Mean fu) of 0.502 and a fraction unbound ([2]; human, read-out: unbound fraction (fu), Replicate 1) of 0.499. For the same molecule, the fraction unbound ([2]; human, read-out: unbound fraction (fu), Replicate 2) was 0.462, the fraction unbound ([2]; human, read-out: unbound fraction (fu), Replicate 3) was 0.544 and the “urine concentration relative to serum (times higher)” value ([3]; 2.5 hours) was “approx. 127 times”. The Breastmilk concentration ([3]; 120.0 hrs after last dose) was “BLQ (BLQ: Below limit of quantification. The lower limit of quantification is 25 pg/ml for both 5-MeO-DMT and 5-MIAA in both serum and breastmilk; it is 25 pg/ml in urine for 5-MeO-DMT and 250 pg/ml for 5-MIAA in urine.)”, the concentration at 2.5 h [3, 7] was 13.2 ng/mL and the concentration at 8.5 h [3, 7] was 0.359 ng/mL. For the same molecule, the concentration at 2.5 h ([3]; female, human, urine, inhaled) was 13000 ng/mL, the Breastmilk concentration ([3]; −24.0 hrs (pre-dosing)) was “BLQ (BLQ: Below limit of quantification. The lower limit of quantification is 25 pg/ml for both 5-MeO-DMT and 5-MIAA in both serum and breastmilk; it is 25 pg/ml in urine for 5-MeO-DMT and 250 pg/ml for 5-MIAA in urine.)” and the half-life at 1 μM [4] was 10.7 days. For the same molecule, the hepatocyte CLint at 1 μM [4] was 0.15 µL/min/1e6 cells, the “relative LC/MS peak area” value (human hepatocytes [5]; 1 μM Hepatocytes, 0 h) was 100% and the “relative LC/MS peak area” value (human hepatocytes [5]; 1 μM Hepatocytes, 1 h) was 98%. For the same molecule, the “relative LC/MS peak area” value (human hepatocytes [5]; 1 μM Hepatocytes, 2 h) was 100%, the “relative LC/MS peak area” value (human hepatocytes [5]; 1 μM Hepatocytes, 4 h) was 99% and the “relative LC/MS peak area” value (human hepatocytes [5]; 1 μM Hepatocytes, 8 h) was 95%. The “relative LC/MS peak area” value (human hepatocytes [5]; 1 μM Hepatocytes, 24 h) was 99%, the “relative LC/MS peak area” value (human hepatocytes [5]; 1 μM Hepatocytes, 48 h) was 88% and the “relative LC/MS peak area” value (human hepatocytes [5]; 1 μM Hepatocytes, 72 h) was 82%. For the same molecule, the “relative LC/MS peak area” value (human hepatocytes [5]; 1 μM Stromal cells, 0 h) was 100%, the “relative LC/MS peak area” value (human hepatocytes [5]; 1 μM Stromal cells, 4 h) was 103% and the “relative LC/MS peak area” value (human hepatocytes [5]; 1 μM Stromal cells, 8 h) was 107%. For the same molecule, the “relative LC/MS peak area” value (human hepatocytes [5]; 1 μM Stromal cells, 24 h) was 108%, the “relative LC/MS peak area” value (human hepatocytes [5]; 1 μM Stromal cells, 48 h) was 111% and the “relative LC/MS peak area” value (human hepatocytes [5]; 1 μM Stromal cells, 72 h) was 135%. For the same molecule, the “relative LC/MS peak area” value (human hepatocytes [5]; 10 μM Hepatocytes, 0 h) was 100%, the “relative LC/MS peak area” value (human hepatocytes [5]; 10 μM Hepatocytes, 1 h) was 97% and the “relative LC/MS peak area” value (human hepatocytes [5]; 10 μM Hepatocytes, 2 h) was 100%. For the same molecule, the “relative LC/MS peak area” value (human hepatocytes [5]; 10 μM Hepatocytes, 4 h) was 103%, the “relative LC/MS peak area” value (human hepatocytes [5]; 10 μM Hepatocytes, 8 h) was 96% and the “relative LC/MS peak area” value (human hepatocytes [5]; 10 μM Hepatocytes, 24 h) was 96%. For the same molecule, the “relative LC/MS peak area” value (human hepatocytes [5]; 10 μM Hepatocytes, 48 h) was 86%, the “relative LC/MS peak area” value (human hepatocytes [5]; 10 μM Hepatocytes, 72 h) was 75% and the “relative LC/MS peak area” value (human hepatocytes [5]; 10 μM Stromal cells, 0 h) was 100%. For the same molecule, the “relative LC/MS peak area” value (human hepatocytes [5]; 10 μM Stromal cells, 4 h) was 101%, the “relative LC/MS peak area” value (human hepatocytes [5]; 10 μM Stromal cells, 8 h) was 106% and the “relative LC/MS peak area” value (human hepatocytes [5]; 10 μM Stromal cells, 24 h) was 97%. The “relative LC/MS peak area” value (human hepatocytes [5]; 10 μM Stromal cells, 48 h) was 103%, the “relative LC/MS peak area” value (human hepatocytes [5]; 10 μM Stromal cells, 72 h) was 115% and the metabolic turnover (human hepatocytes [5]; human hepatocytes) was “low metabolic turnover”. For the same molecule, the “predicted hepatic extraction ratio” value (human hepatocytes [5]; human, Hμrel HumanPool primary human hepatocyte co-culture) was 2%, the “remaining abundance after 72 h” value (human hepatocytes [5]; in the presence of hepatocytes, 1 and 10 μM) was 75-82% and the “disappearance with stromal cell controls” value (human hepatocytes [5]; stromal cell controls) was “no disappearance”. For the same molecule, the “Daily Infant Dosage (DID) of 5-MIAA” value [6] was 0.006886 mg/day and the “Daily Infant Dosage (DID) of 5-MIAA per kg” value [6] was 0.001377 mg/kg/day.
